{"source": "ChEMBL document CHEMBL4715930", "about": "“Reactivation of the Guardian of the Genome P53: A Promising Strategy for Treatment of Cancer” (ACS Med Chem Lett, 2021)"}
{"target": "Tumour suppressor p53/oncoprotein Mdm2 (Homo sapiens, UniProt Q00987)", "sequence (P04637 whole entry, the tested form may be a part)": "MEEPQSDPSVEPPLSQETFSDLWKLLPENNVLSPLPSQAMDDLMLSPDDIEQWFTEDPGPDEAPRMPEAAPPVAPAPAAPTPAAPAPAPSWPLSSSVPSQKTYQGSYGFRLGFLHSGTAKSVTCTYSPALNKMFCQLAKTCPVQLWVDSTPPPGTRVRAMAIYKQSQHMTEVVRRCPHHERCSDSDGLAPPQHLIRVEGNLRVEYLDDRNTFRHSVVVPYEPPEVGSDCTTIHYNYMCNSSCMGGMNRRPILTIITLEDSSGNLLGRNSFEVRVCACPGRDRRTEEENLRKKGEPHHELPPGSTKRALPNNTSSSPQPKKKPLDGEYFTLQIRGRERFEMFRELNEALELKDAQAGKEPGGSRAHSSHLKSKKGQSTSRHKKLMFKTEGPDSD", "sequence (Q00987 whole entry, the tested form may be a part)": "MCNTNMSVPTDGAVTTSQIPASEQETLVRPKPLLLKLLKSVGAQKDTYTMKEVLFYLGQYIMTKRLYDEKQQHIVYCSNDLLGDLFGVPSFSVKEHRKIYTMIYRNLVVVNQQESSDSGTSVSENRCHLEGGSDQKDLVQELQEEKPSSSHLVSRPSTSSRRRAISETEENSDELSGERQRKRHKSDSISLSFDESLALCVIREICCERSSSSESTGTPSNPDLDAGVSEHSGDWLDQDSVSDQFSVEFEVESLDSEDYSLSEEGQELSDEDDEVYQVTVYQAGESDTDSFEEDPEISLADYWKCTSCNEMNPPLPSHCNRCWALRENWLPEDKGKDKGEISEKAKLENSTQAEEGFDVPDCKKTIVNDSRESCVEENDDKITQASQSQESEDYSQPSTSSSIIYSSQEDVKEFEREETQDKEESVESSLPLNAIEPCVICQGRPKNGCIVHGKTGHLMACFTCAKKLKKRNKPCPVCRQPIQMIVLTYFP", "assay": "Inhibition of GST-tagged MDM2 (23 to 117 residues) (unknown origin) assessed as inhibition of MDM2/biotinylated wild type human p53 (16 to 27 residues) interaction by measuring reactivation of p53 incubated for 15 mins by AlphaScreen assay", "assay_type": "protein assay", "units": {"IC50": "nM"}}
{"compound": "CCOc1cccc(CN2[C@H]3Cc4c5cc(C)c(C(=O)NC)cc5nn4[C@H]3[C@H](c3cccc(Cl)c3F)[C@]23C(=O)Nc2nc(Cl)ccc23)c1", "IC50": 5}
{"compound": "O=C(O)c1ccc2c(c1)nc1n2CC[C@@H]2[C@H]1[C@H](c1cccc(Cl)c1F)[C@]1(C(=O)Nc3cc(Cl)ccc31)N2CC1CC1", "IC50": 79}
{"compound": "Cc1c(C(=O)N2CCCCC2)ccn2c3c(nc12)[C@@H]1[C@H](CC3)N(CC2CC2)[C@@]2(C(=O)Nc3cc(Cl)ccc32)[C@H]1c1ccnc(Cl)c1F", "IC50": 10}
